Measured values reported in patent US4894219A, “Beta-agonist carbostyril derivatives, assay method and pharmacological composition” (University of Florida, priority 1988, dated 1990).
Read-outs that look alike come from different tables or passages of the source.

How the values were obtained:
beta-2 = conditions: Yoshizaki et al, J. Med. Chem. 1977; cited from earlier work
adenylate cyclase [1] = assay: Stimulation of adenylate cyclase activity in rat reticulocyte membranes; assay type: biochemical; conditions: for Intrinsic Activity, adenylate cyclase: as compared to (-)isoproterenol which was set to 1.0, 10 min; for intrinsic activity (efficacy) in words: compared with (-)isoproterenol; for EC50: rat reticulocyte membranes, mean ±SE, n = 3-6, read-out: EC50 (concentration that produced half-maximal enzyme activation), adenylate cyclase
Description: Biochemical Methods. Adenylate Cyclase Activity. Rat reticulocytes were induced and membranes prepared as described by Baker et al, J. Biol. Chem., Vol. 260, p. […] These are the basal conditions. […] At the end of the incubation, 0.3 ml of 10 mM Tris.HCl buffer at pH 7.0 containing 5 mM EDTA was added to each tube and the tubes were placed in a boiling water bath for 5 min. After cooling to room temperature, the tubes were centrifuged for 5 min at 10000 g and the supernatant saved. The cAMP content of the supernatant was determined by a competitive protein binding assay. The amount of cAMP present was calculated from a standard curve determined with unlabeled cAMP. […] Basal and GTP-stimulated activity values were substracted from the values obtained in the presence of ligands and the concentration of ligands that produced half-maximal activity (EC50) were determined by using a dose-effect analysis with an Apple IIe computer. Membrane protein content was determined by the Lowry method with bovine serum albumin as standard.

beta-adrenergic receptor [2] = target: T1, beta-adrenergic receptor (Rattus norvegicus, UniProt P10608); assay: [^125 I]iodocyanopindolol (CYP) competition binding to the beta-adrenergic receptor in rat reticulocyte membranes
T1 sequence (P10608 whole entry): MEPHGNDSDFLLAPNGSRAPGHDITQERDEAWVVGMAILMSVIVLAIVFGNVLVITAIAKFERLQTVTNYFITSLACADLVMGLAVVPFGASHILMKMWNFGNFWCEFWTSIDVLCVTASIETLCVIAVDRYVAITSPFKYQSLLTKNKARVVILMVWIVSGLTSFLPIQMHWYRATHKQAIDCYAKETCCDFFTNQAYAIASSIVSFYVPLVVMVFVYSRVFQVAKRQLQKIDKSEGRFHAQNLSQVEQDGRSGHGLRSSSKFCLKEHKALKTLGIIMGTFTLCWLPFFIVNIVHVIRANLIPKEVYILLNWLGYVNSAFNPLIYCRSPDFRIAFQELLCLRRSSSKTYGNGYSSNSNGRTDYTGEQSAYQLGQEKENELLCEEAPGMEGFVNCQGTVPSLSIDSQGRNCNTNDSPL
Description: β-Adrenergic Receptor Binding. […] At the end of the incubation, the suspensions were diluted with 4 ml of ice-cold incubation buffer and poured onto Whatman GF/B glass fiber filters under reduced pressure. Each filter was washed with a further 8 ml of ice-cold buffer, placed in a scintillation vial, and counted. Specific binding to the receptor was calculated as the difference between total binding determined in the absence of alprenolol and the nonspecific binding determined in the presence of alprenolol. […] All data was statistically analyzed by using a one-way analysis of variance (ANOVA).

adenylate cyclase [3] = assay: Time course of cAMP production in rat reticulocytes with propranolol addition (FIG. 3); assay type: biochemical; conditions: for irreversible binding and response at the beta-adrenergic receptor: conclusion from FIG. 3 and binding data; for cAMP production after propranolol added during incubation: propranolol added after 9 min ((-)isoproterenol) or 7 min (structure 13); for cAMP production, linearity with time: without propranolol
Description: Biochemical Methods. Adenylate Cyclase Activity. Rat reticulocytes were induced and membranes prepared as described by Baker et al, J. Biol. Chem., Vol. 260, p. 15820 (1985). […] These are the basal conditions. When stimulation of activity was measured, the assay also contained 0.5 mM GTP and varying concentrations of (-)-isoproterenol or the carbostyril derivatives. At the end of the incubation, 0.3 ml of 10 mM Tris.HCl buffer at pH 7.0 containing 5 mM EDTA was added to each tube and the tubes were placed in a boiling water bath for 5 min. After cooling to room temperature, the tubes were centrifuged for 5 min at 10000 g and the supernatant saved. The cAMP content of the supernatant was determined by a competitive protein binding assay. The amount of cAMP present was calculated from a standard curve determined with unlabeled cAMP. Enzyme activity was linear with time and protein through 10 min and 0.1 mg, respectively. Basal and GTP-stimulated activity values were substracted from the values obtained in the presence of ligands and the concentration of ligands that produced half-maximal activity (EC50) were determined by using a dose-effect analysis with an Apple IIe computer. Membrane protein content was determined by the Lowry method with bovine serum albumin as standard.

[4] = test system: beta-adrenergic receptors; assay: Loss of beta-adrenergic receptors in rat tissues after i.p. injection; assay type: in vivo; conditions: for Specific Ligand Binding / % reduction of receptors from controls: 3 hr; for beta-2-receptor selectivity in vivo: receptor loss in rat tissues
Description: Rats were injected i.p. with either 2 or 5 mg/kg of structure (13) and 3 hr. later, the tissues were removed and assayed for the beta-adrenergic receptor content.

ornithine decarboxylase = assay: Induction of ornithine decarboxylase activity in the rat lung; assay type: in vivo; conditions: for Fold increase of ornithine decarboxylase activity over the basal level / Ornithine decarboxylase activity: rat lung
beta-adrenergic receptor [5] = target: T1, beta-adrenergic receptor; assay: Washout experiment: irreversible binding after membrane pretreatment with compound 13; parameters: membranes prepared from rat reticulocytes; from tissue; host or cells: rat reticulocytes (blood cells), membranes; endogenous receptor
Description: In the pretreatment experiments, reticulocyte membrane protein (3 mg/ml) was incubated in 50 mM Tris·HCl buffer at pH 7.4, containing 5 mM MgCl2 without and with 20 nM compound 13 for 30 min at 32° C. A parallel incubation was also performed containing 20 nM compound 13 plus 10 μM nadolol. At the end of the incubation the tubes were filled (30 ml) with ice-cold incubation buffer and centrifuged at 48000 g for 15 min. The pellets were washed three more times by centrifugation and resuspension and the final pellets were resuspended in 1 ml of incubation buffer for assay. The membrane content of β-adrenergic receptors was determined with (-)-^125 I]-iodocyanopindolol (10-100 pM) as described above. The binding maximums and dissociation constants (KD) were determined from linear regression analysis of Scatchard plots.
Irreversible binding of compound (13) to the reticulocyte β-adrenergicreceptor was indicated by washout experiments.

[6] = listed as structure wherein X is NHCOCH2 Br
[7] = 0.1 mg/kg i.p., 3 hours, basal 1.9 + 0.4
[8] = 0.1 mg/kg plus propranolol (5 mg/kg, 30 min before)

CC[C@H](NC(C)C)[C@H](O)c1ccc(O)c2[nH]c(=O)ccc12 (relative stereo) [procaterol, erythro-5-(1-hydroxy-2-isopropylaminobutyl)-8-hydroxycarbostyril]
beta-2 agonist and bronchodilator activity in words (beta-2): potent beta-2 agonist and a bronchodilator

CC(C)(Cc1ccc(I)cc1)NCC(O)c1ccc(O)c2[nH]c(=O)ccc12 (stereo not drawn) [Compound 11, 5-[2-[[1-(4-Iodophenyl)-2-methylprop-2-yl]amino]-1-hydroxyethyl]-8-hydroxycarbostyril]
Intrinsic Activity, adenylate cyclase (adenylate cyclase [1]): 1.3 | intrinsic activity (efficacy) in words (adenylate cyclase [1]): higher intrinsic activities than (-)isoproterenol | EC50 (adenylate cyclase [1]): 5.6 ± 1.4 nM | IC50 (beta-adrenergic receptor [2]): 7.6 ± 1.3 nM

CC(C)(Cc1ccc(N)cc1)NCC(O)c1ccc(O)c2[nH]c(=O)ccc12 (stereo not drawn) [Compound 12]
Intrinsic Activity, adenylate cyclase (adenylate cyclase [1]): 1.0 | intrinsic activity (efficacy) in words (adenylate cyclase [1]): equal to the intrinsic activity (efficacy) of (-)isoproterenol | EC50 (adenylate cyclase [1]): 14.2 ± 4.7 nM | IC50 (beta-adrenergic receptor [2]): 22 ± 3 nM

CC(C)(Cc1ccc(NC(=O)CBr)cc1)NCC(O)c1ccc(O)c2nc(O)ccc12 (stereo not drawn) [Compound 13]
Intrinsic Activity, adenylate cyclase (adenylate cyclase [1]): 1.2 | intrinsic activity (efficacy) in words (adenylate cyclase [1]): higher intrinsic activities than (-)isoproterenol | EC50 (adenylate cyclase [1]): 8.5 ± 3.5 nM | IC50 (beta-adrenergic receptor [2]): 5.3 ± 0.8 nM | irreversible binding and response at the beta-adrenergic receptor (adenylate cyclase [3]): irreversibly binds to the beta-adrenergic receptor and produces an irreversible response | irreversible binding and response at the beta-adrenergic receptor (adenylate cyclase [3]; [6]): appears to bind irreversibly to the receptor and produce irreversible agonist effects | cAMP production after propranolol added during incubation (adenylate cyclase [3]): no change in the rate of cAMP production occurred | cAMP production with propranolol added at time 0 (adenylate cyclase [3]; propranolol added with structure 13 at time 0): stimulation of cAMP production was blocked | cAMP production, linearity with time (adenylate cyclase [3]): linear through 14 min | loss of receptors in words ([4]; cerebral cortex, 5 mg/kg): no significant loss of receptors | Specific Ligand Binding ([4]; cerebral cortex, 5 mg/kg i.p., control 119 ± 10): 114 ± 14 fmol/mg protein | loss of receptors in words ([4]; heart or submaxillary gland, 5 mg/kg vs 2 mg/kg): no further loss of receptors was detected | % reduction of receptors from controls ([4]; heart, 2 mg/kg i.p.): 23% | Specific Ligand Binding ([4]; heart, 2 mg/kg i.p., control 22.3 ± 1.0): 17.1 ± 0.5 fmol/mg protein | % reduction of receptors from controls ([4]; heart, 5 mg/kg i.p.): 15% | Specific Ligand Binding ([4]; heart, 5 mg/kg i.p., control 22.3 ± 1.0): 18.9 ± 0.8 fmol/mg protein | blood brain barrier penetration ([4]; inferred from lack of receptor loss in cerebral cortex): cannot cross the blood brain barrier | % reduction of receptors from controls ([4]; lung, 2 mg/kg i.p.): 52% | Specific Ligand Binding ([4]; lung, 2 mg/kg i.p., control 658 ± 27): 318 ± 23 fmol/mg protein | % reduction of receptors from controls ([4]; lung, 5 mg/kg i.p.): 75% | Specific Ligand Binding ([4]; lung, 5 mg/kg i.p., control 658 ± 27): 166 ± 9 fmol/mg protein | beta-2-receptor selectivity in vivo [4]: receptor reductions were mainly due to losses of beta-2 receptors | beta-2-receptor selectivity in vivo [4, 6]: high degree of beta-2-receptor selectivity in vivo | % reduction of receptors from controls ([4]; spleen, 2 mg/kg i.p.): 42% | Specific Ligand Binding ([4]; spleen, 2 mg/kg i.p., control 53.2 ± 1.8): 31 ± 4 fmol/mg protein | % reduction of receptors from controls ([4]; spleen, 5 mg/kg i.p.): 65% | Specific Ligand Binding ([4]; spleen, 5 mg/kg i.p., control 53.2 ± 1.8): 19 ± 1.2 fmol/mg protein | % reduction of receptors from controls ([4]; submaxillary gland, 2 mg/kg i.p.): 23% | Specific Ligand Binding ([4]; submaxillary gland, 2 mg/kg i.p., control 98 ± 5.8): 75 ± 3 fmol/mg protein | % reduction of receptors from controls ([4]; submaxillary gland, 5 mg/kg i.p.): 21% | Specific Ligand Binding ([4]; submaxillary gland, 5 mg/kg i.p., control 98 ± 5.8): 77 ± 3.7 fmol/mg protein | Fold increase of ornithine decarboxylase activity over the basal level (ornithine decarboxylase; 0.1 mg/kg i.p., 3 hours): 4.6 fold | Ornithine decarboxylase activity (ornithine decarboxylase; [7]): 8.7 + 0.5 nmol CO2 Formed/g tissue/hr | Ornithine decarboxylase activity (ornithine decarboxylase; [8]): 0.4 ± 0.06 nmol CO2 Formed/g tissue/hr | receptor concentration after pretreatment and washout (beta-adrenergic receptor [5]; 20 nM compound 13, four wash cycles, control 576±22, mean ±SD, n=3): 168±15 fmol/mg of protein | inhibition at 0.02 µM (beta-adrenergic receptor [5]; 0.5 h, 20 nM compound 13, four wash cycles, read-out: decrease in the receptor concentration after pretreatment and washout): 71% | Kd (beta-adrenergic receptor [5]; compound 13 treated membranes (20 nM), control 13±3, read-out: KD value for (-)-[^125 I]iodocyanopindolol binding to the remaining receptors): 0.011 ± 0.002 nM

CC(C)(C)NCC(O)COc1cccc2c1CC(O)C(O)C2 (stereo not drawn) [nadolol, reference compound]
prevention of loss of specific binding sites by nadolol (beta-adrenergic receptor [5]; nadolol 10 μM in preincubation with compound 13): the loss of specific binding sites was completely prevented

CC(C)NCC(O)COc1cccc2ccccc12 (stereo not drawn) [propranolol]
blocking of ornithine decarboxylase induction (ornithine decarboxylase; propranolol 5 mg/kg 30 min before (-)isoproterenol or compound 13): completely blocked

(-)isoproterenol [reference compound]
Intrinsic Activity, adenylate cyclase (adenylate cyclase [1]): 1.0 | EC50 (adenylate cyclase [1]): 226 ± 1.4 nM | IC50 (beta-adrenergic receptor [2]; read-out: IC50 (concentration that inhibited CYP binding by 50%), rat reticulocyte membranes, mean ±SE, n = 3-6, 60 min): 327 ± 17 nM | cAMP production after propranolol added during incubation (adenylate cyclase [3]): no further cAMP was produced | cAMP production, linearity with time (adenylate cyclase [3]): linear through 14 min | Fold increase of ornithine decarboxylase activity over the basal level (ornithine decarboxylase; 0.1 mg/kg i.p., 3 hours): 6.5 fold | Ornithine decarboxylase activity (ornithine decarboxylase; [7]): 11.8 + 1.7 nmol CO2 Formed/g tissue/hr | Fold increase of ornithine decarboxylase activity over the basal level (ornithine decarboxylase; 0.1 mg/kg i.p., 3 hours, listed as (-)Isoproterenol): 6.2 fold | Ornithine decarboxylase activity (ornithine decarboxylase; [8]): 0.4 ± 0.09 nmol CO2 Formed/g tissue/hr
